Reference: patent US20250114389A1, “NUCLEOSIDES AND NUCLEOTIDES ANALOGS AS ANTIVIRAL AGENTS” (Emory University, priority 2021, published 2025)

Experiments:
SARS-CoV-2 [1] = experiment: Anti-SARS-CoV-2 activity in Vero cells (virus yield inhibition); assay type: cell-based
[2] = Cytotoxicity in CEM cells; assay type: cell-based, human; conditions: human, CEM lymphoblastoid cells
Method: (§1) The toxicity of the compounds was assessed in Vero, human PBM, CEM (human lymphoblastoid), MT-2, and HepG2 cells, as described previously (see Schinazi R. F., Sommadossi J.-P., Saalmann V., Cannon D. L., Xie M.-Y., Hart G. C., Smith G. A. & Hahn E. F. Antimicrob. Agents Chemother. 1990, 34, 1061-67). Cycloheximide was included as positive cytotoxic control, and untreated cells exposed to solvent were included as negative controls. The cytotoxicity IC50 was obtained from the concentration-response curve using the median effective method described previously (see Chou T.-C. & Talalay P. Adv. Enzyme Regul. 1984, 22, 27-55; Belen'kii M. S. & Schinazi R. F. Antiviral Res. 1994, 25, 1-11).

[3] = Cytotoxicity in Huh7 cells; assay type: cell-based; conditions: human
[4] = Cytotoxicity in PBM cells; assay type: cell-based, human; conditions: human
Method: as §1

[5] = Cytotoxicity in Vero cells; conditions: African green monkey, Vero kidney cells
Calu3 cells = conditions: read-out: Cytotoxicity CC50 Calu3
Caco2 cells = conditions: read-out: Cytotoxicity CC50 Caco2
SARS-CoV-2 [6] = experiment: Anti-SARS-CoV-2 activity in Calu3 cells (virus yield inhibition); assay type: cell-based; conditions: Severe acute respiratory syndrome coronavirus 2, Calu-3, Table 1
[7] = tested on: CEM (human lymphoblastoid) cells; experiment: Cytotoxicity in CEM cells; assay type: cell-based
Method: as §1

SARS-CoV-2 [8] = experiment: Anti-SARS-CoV-2 activity in Caco2 cells (virus yield inhibition); conditions: for EC50: Severe acute respiratory syndrome coronavirus 2, Caco-2, read-out: Anti-SARS-CoV-2 Activity (Caco2) EC50; for EC90: Severe acute respiratory syndrome coronavirus 2, Caco-2, read-out: Anti-SARS-CoV-2 Activity (Caco2) EC90
Vero cells = experiment: Cytotoxicity in Vero cells; conditions: read-out: Cytotoxicity CC50 Vero; Vero cells
Omicron [9] = experiment: Anti-Omicron activity in Calu-3; assay type: cell-based, SARS-CoV-2; conditions: Severe acute respiratory syndrome coronavirus 2
Omicron [10] = experiment: microbe, parasite or virus in culture
[11] = assay type: in vitro ADME; conditions: hamster, 10 μM
Method: An aliquot of 450 μL of human, mouse or hamster plasma were exposed to 10 μM of compound and incubated at 37° C. At 0, 5, 15, 30, 60, 90 and 120 min, 50 μL of plasma sample was mixed with 200 μL of ice-cold methanol (70%). 50 μL supernatant was dried and reconstituted in 100 μL H2O. Propantheline bromide was used as positive control. The supernatant was then subjected to LC-MS analysis (LC-MS condition: Instrument: Thermo TSQ Quantiva. Column: Kinetex […] (50×2.1 mm, […]). LC buffers: A): 0.1% formic acid, and B): acetonitrile. MRM methods: (269.2-112 positive), Indinavir (IS, 614.4-421.2 positive, IS)). The stability results are shown in FIGS. 2-4 (human plasma, mouse plasma and hamster plasma, respectively). Compound A is stable in human and mouse plasma up to 2 hours and stable up to […] in hamster plasma. Compound 23 was converted to compound A in hamster plasma in less than 5 min.

Huh7 cells = experiment: Cytotoxicity in Huh7 cells; assay type: cell-based
human PBM cells = experiment: Cytotoxicity in PBM cells; assay type: cell-based
Method: as §1

SARS-CoV-2 [12] = experiment: Anti-SARS-CoV-2 activity in Calu3 ALI culture; assay type: cell-based; conditions: Severe acute respiratory syndrome coronavirus 2, Calu-3; Calu3 air-liquid interface
SARS-CoV-2 [13] = experiment: Anti-SARS-CoV-2 activity in HAE-ALI culture; assay type: cell-based; conditions: Severe acute respiratory syndrome coronavirus 2; HAE air-liquid interface
[14] = Severe acute respiratory syndrome coronavirus 2, Table 2, read-out: Anti-SARS-CoV-2 activity in Vero cells EC50
[15] = Severe acute respiratory syndrome coronavirus 2, Table 1, read-out: Anti-SARS-CoV-2 Activity (Vero) EC50
[16] = Severe acute respiratory syndrome coronavirus 2, Table 1, read-out: Anti-SARS-CoV-2 Activity (Vero) EC90
[17] = Severe acute respiratory syndrome coronavirus 2, Table 2, read-out: Anti-SARS-CoV-2 activity in Vero cells EC90

SMILES	CC50 [5]	EC50 (SARS-CoV-2 [6])	EC90 (SARS-CoV-2 [6])	EC50 (SARS-CoV-2 [1]; [15])	EC90 (SARS-CoV-2 [1]; [16])	EC50 (SARS-CoV-2 [8])	EC90 (SARS-CoV-2 [8])	also measured
N#C[C@]1(c2ccc3c(N)ncnn23)O[C@@H](CO)C(O)C1O (stereo partly shown)								EC50 (SARS-CoV-2 [1]; [14]): > 10 µM
CC(C)C(=O)OC[C@H]1O[C@@](C#N)(n2ccc(N)nc2=O)C(O)C1O (stereo partly shown) [drawing 133]	73.8 µM							CC50 [2]: 15.8 µM; CC50 [3]: > 100 µM; CC50 [4]: 63.1 µM
C[C@@H]1C[C@@H]([C@H](O)CC2CC(=O)NC(=O)C2)C(=O)[C@@H](C)C1 [Cyclohexamide]								CC50 (Calu3 cells): 10 µM; CC50 (Caco2 cells): 10 µM
O=c1nc(NO)ccn1[C@@H]1O[C@H](CO)[C@@H](O)[C@H]1O [NHC, N^4-hydroxycytidine, reference compound]		0.6 µM	2 µM	0.2 µM	0.42 µM	1 µM	> 10 µM	CC50 [7]: 2.6 µM; CC50 (Vero cells): 16.5 µM
CC(C)[C@H](N)C(=O)OC1C(O)[C@](C#N)(n2ccc(N)nc2=O)O[C@@H]1CO (stereo partly shown) [drawing 135]	93.5 µM							CC50 [4]: > 100 µM
N#C[C@@]1(n2ncc(N)nc2=O)O[C@H](CO)C(O)C1O (stereo partly shown)								EC50 (SARS-CoV-2 [1]; [14]): 4 µM; EC90 (SARS-CoV-2 [1]; [17]): 9.8 µM
CC(C)OC(=O)[C@H](C)N[P@](=O)(OC[C@H]1O[C@@](C#N)(n2ccc(N)nc2=O)C(O)C1O)Oc1ccccc1 (stereo partly shown) [drawing 131]	> 100 µM							CC50 [2]: > 100 µM; CC50 [3]: > 100 µM; CC50 [4]: > 100 µM
CCC(CC)COC(=O)[C@H](C)N[P@](=O)(OC[C@@H]1O[C@](C#N)(c2ccc3c(N)ncnn23)C(O)C1O)Oc1ccccc1 (stereo partly shown)								EC50 (SARS-CoV-2 [1]; [14]): < 10 µM
N#C[C@@]1(c2ccc3c(N)ncnn23)O[C@H](CO)C(O)C1O (stereo partly shown)								EC50 (SARS-CoV-2 [1]; [14]): < 10 µM
N#C[C@@]1(n2ccc(=O)[nH]c2=O)O[C@H](CO)C(O)C1O (stereo partly shown) [drawing 119]		0.08 µM	0.7 µM	4.7 µM	8.5 µM	0.02 µM	0.2 µM	
CCCCCCCC(=O)OC[C@H]1O[C@@](C#N)(n2ccc(N)nc2=O)C(O)C1O (stereo partly shown) [drawing 134]	45.7 µM							CC50 [2]: 3.7 µM; CC50 [3]: 77.8 µM; CC50 [4]: > 100 µM
N#C[C@@]1(n2ccc(=O)[nH]c2=O)O[C@H](CO)C(O)C1O (stereo partly shown) [drawing 137]								EC50 (Omicron [9]): 3.8 µM; EC90 (Omicron [9]): > 10 µM; EC50 (Omicron [10]; Severe acute respiratory syndrome coronavirus 2, Caco-2, read-out: Anti-Omicron Activity (Caco-2) EC50): > 10 µM; EC90 (Omicron [10]; Severe acute respiratory syndrome coronavirus 2, Caco-2, read-out: Anti-Omicron Activity (Caco-2) EC90): > 10 µM
CC(C)[C@H](N)C(=O)OC1C(O)[C@](C#N)(n2ccc(N)nc2=O)O[C@@H]1CO (stereo partly shown) [drawing 124]		0.3 µM	4.3 µM	2.3 µM	6.6 µM	3.3 µM	8.3 µM	
CC(C)C(=O)OC[C@H]1O[C@@](C#N)(n2ccc(N)nc2=O)[C@H](O)[C@@H]1O [Compound 23, ((2R,3S,4R,5R)-5-(4-Amino-2-oxopyrimidin-1(2H)-yl)-5-cyano-3,4-dihydroxytetrahydro-furan-2-yl)methyl isobutyrate]								time for conversion to compound A in plasma [11]: less than 5 min
CC(C)OC(=O)[C@H](C)N[P@](=O)(OC[C@H]1O[C@@](C#N)(n2ccc(N)nc2=O)C(O)C1O)Oc1ccccc1 (stereo partly shown) [drawing 120]		> 10 µM	> 10 µM	> 10 µM	> 10 µM	0.7 µM	2.1 µM	
N#C[C@@]1(n2ccc(=O)[nH]c2=O)O[C@H](CO)C(O)C1O (stereo partly shown) [drawing 130]	> 100 µM							CC50 [2]: 12.1 µM; CC50 [3]: > 100 µM; CC50 [4]: > 100 µM
CC(C)C(=O)OC[C@H]1O[C@@](C#N)(n2ccc(=O)[nH]c2=O)C(O)C1O (stereo partly shown) [drawing 132]	> 100 µM							CC50 [2]: 39 µM; CC50 [3]: 88.9 µM; CC50 [4]: > 100 µM
CC(C)C(=O)OC[C@H]1O[C@@](C#N)(n2ccc(N)nc2=O)C(O)C1O (stereo partly shown) [drawing 122]		1.2 µM	4 µM	1.2 µM	2.2 µM	0.5 µM	2.5 µM	
CC(C)C(=O)OC[C@H]1O[C@@](C#N)(n2ccc(=O)[nH]c2=O)C(O)C1O (stereo partly shown) [drawing 121]		0.2 µM	0.7 µM	> 10 µM		2.1 µM	5.7 µM	
CCCCCCCC(=O)OC[C@H]1O[C@@](C#N)(n2ccc(N)nc2=O)C(O)C1O (stereo partly shown) [drawing 123]		0.2 µM	1.2 µM	0.4 µM	1.1 µM	0.7 µM	1.7 µM	
CCC(CC)COC(=O)[C@H](C)N[P@](=O)(OC[C@H]1O[C@@](C#N)(c2ccc3c(N)ncnn23)[C@H](O)[C@@H]1O)Oc1ccccc1 [Remdesivir, reference compound]	> 100 µM		0.6 µM	1 µM	3.5 µM	0.004 µM	0.04 µM	CC50 [7]: 12 µM; CC50 (Huh7 cells): 1.5 µM; CC50 (human PBM cells): 6.4 µM; EC50 (SARS-CoV-2 [1]; [14]): 1.2 µM; EC90 (SARS-CoV-2 [1]; [17]): 3.6 µM; EC50 (SARS-CoV-2 [12]): 0.9 µM; EC90 (SARS-CoV-2 [12]): 4.6 µM; EC90 (SARS-CoV-2 [13]): 1.2 µM
